In patent US20040110228A1, “Combinatorial organic synthesis of unique biologically active compounds” (priority 2002, published 2004):
Where a SMILES comes first, the peptide text is derived from it. Where no end group is shown, it is not given here. [ ]: non-standard residue; d: D form. ξ: configuration not given here. ξW = NC(Cc1c[nH]c2ccccc12)C(=O)O; dTic = O=C(O)[C@H]1Cc2ccccc2CN1; Tic = O=C(O)[CH]1Cc2ccccc2CN1; ξF = NC(Cc1ccccc1)C(=O)O

How the values were obtained:
[1] = tested on: Holliday junction (HJ) intermediate; assay: in vitro Holliday junction trapping assay (recombination of radiolabeled and unlabeled DNA substrates); assay type: biochemical; settings: 0.01 mg/ml concentrations of peptides; FIG. 56
Procedure: The eight macrocyclic compounds shown in FIGS. 55 were tested for their ability to bind to the HJ in an in vitro assay. The assay employs a recombination reaction between one radiolabeled double-stranded DNA substrate and an unlabeled partner DNA substrate. Successful recombination gives recombination products and very small amounts of HJ intermediate. A previously identified linear peptide dimer of […] was used as a positive control because it was known to accumulate HJs, as described in […] et al., 2000, supra). During the recombination reaction, two initial DNA cleavage and ligation reactions must take place to form the junction, and two subsequent DNA cleavage and ligation reactions resolve the HJs into double stranded recombination products.

[2] = tested on: Salmonella typhimurium; assay: cell growth assay (OD600); assay type: cell-based; settings: Salmonella enterica serovar Typhimurium Ames strain and LT2 strain; peptides in the medium
[3] = target: T1, Int protein (Escherichia phage lambda, UniProt P03700); assay: in vitro recombination reaction catalysed by the Int protein (attL/attR substrates, gel); assay type: biochemical
T1 sequence (P0A6Y1 whole entry): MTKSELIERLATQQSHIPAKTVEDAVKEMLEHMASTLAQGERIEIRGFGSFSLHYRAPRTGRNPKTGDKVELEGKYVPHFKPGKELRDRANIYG
T1 sequence (P03699 whole entry, further chain): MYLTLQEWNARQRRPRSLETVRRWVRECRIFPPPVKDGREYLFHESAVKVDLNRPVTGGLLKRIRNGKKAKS
T1 sequence (P0A6X7 whole entry, further chain): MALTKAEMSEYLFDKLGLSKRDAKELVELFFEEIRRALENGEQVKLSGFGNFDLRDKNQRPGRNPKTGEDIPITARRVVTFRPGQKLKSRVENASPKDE
T1 sequence (P03700 whole entry): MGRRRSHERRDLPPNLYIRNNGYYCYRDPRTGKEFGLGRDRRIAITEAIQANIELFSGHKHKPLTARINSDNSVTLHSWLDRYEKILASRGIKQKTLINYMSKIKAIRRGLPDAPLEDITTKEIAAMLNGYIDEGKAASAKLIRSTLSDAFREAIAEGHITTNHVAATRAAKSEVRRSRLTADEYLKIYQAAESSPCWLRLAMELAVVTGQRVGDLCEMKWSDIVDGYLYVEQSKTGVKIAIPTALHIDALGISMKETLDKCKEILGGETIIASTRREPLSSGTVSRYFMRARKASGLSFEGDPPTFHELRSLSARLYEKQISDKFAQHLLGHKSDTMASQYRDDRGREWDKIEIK

[4] = tested on: Bare Lymphocyte Syndrome (BLS) cell line; assay type: cell-based
Procedure: Toxicity of peptides KWWCRW and WKHYNY was determined by testing the inhibition of a eukaryotic cell line using a vital stain. The peptides were determined to not be cytotoxic in a non-adherent eukaryotic cell line, Bare Lymphocyte Syndrome (BLS), at concentrations below 250 mg/ml. (Allicotti et al, Manuscript in Preparation). The MTT cytotoxicity assay was used to measure cytotoxicity of the class B synergimycin compounds (Mosmann, Immunol. Methods 65:55-63 (1983)). In this assay, 3-(4,5-dimethylthiazol-2-yl)-2,5-diphenyl tetrazolium bromide (MTT) is converted by live cells into the purple compound formazan. The amount of formazan produced is measured at OD570. The absorbance of the sample wells is compared to the absorbance of the control wells. The readings are used to calculate an IC50 for each peptide. This value represents the concentration of each peptide that reduces the growth of the BLS cells to 50% of the maximum growth measured in the controls.

[5] = tested on: bacterial strains, both gram positive and gram negative; assay: growth inhibition assays in microtiter plates (cell density at 600 nm); assay type: cell-based; settings: 101 μg/ml and 100 μg/ml; FIG. 57
Procedure: The eight macrocyclic compounds shown in FIGS. 55 were tested for their ability to bind to the HJ and inhibit bacterial growth in an in vivo assay. Growth inhibition assays were performed in microtiter plates, by comparing the growth of bacteria in the presence and absence of compounds. Cell density at 600 nm was determined for a series of bacterial strains, both gram positive and gram negative, in the presence and absence of macrocyclic compounds. […] Measurements were taken using a BioRad microtiter plate reader. […] The diluted cultures were shaken at 37° C. and optical densities were measured at 30-minute intervals in order to follow their growth. […]
In order to test the inhibitory potency of the peptides, cell growth assays were performed. […] The cell growth assays were performed in microtiter plates; measurements are taken using a BioRad microtiter plate reader.
Overnight bacterial cultures were diluted 1:20 into media and each test compound was added in no more than 10% of the volume of the final suspension. […] The diluted cultures were shaken at 37° C. and optical densities were measured at 30 minute intervals to follow their growth. […]
Four linear heptamers prepared according to FIGS. 63 were tested for their bacteria growth inhibition. […] Measurements were taken using a BioRad microtiter plate reader. […]

[6] = target: T1, Int protein; settings: Cassell et al. 2000; cited from earlier work

O=C1NC(Cc2c[nH]c3ccccc23)C(=O)N2Cc3ccccc3C[C@@H]2C(=O)NC(Cc2ccccc2)C(=O)NC(Cc2c[nH]c3ccccc23)C(=O)N2Cc3ccccc3C[C@@H]2C(=O)NC1Cc1ccccc1 (stereo partly shown) [E] (cyclo([dTic][ξF][ξW][dTic][ξF][ξW]))
accumulation of HJ intermediates / binding to the HJ [1]: particularly active

O=C1NC(Cc2ccccc2)C(=O)N2Cc3ccccc3CC2C(=O)NC(Cc2ccccc2)C(=O)NC(Cc2ccccc2)C(=O)N2Cc3ccccc3CC2C(=O)NC1Cc1ccccc1 (stereo not shown) [A] (cyclo(FF[Tic]FF[Tic]); configuration not given here)
accumulation of HJ intermediates / binding to the HJ [1]: particularly active

WRWYCR [WRWYCR, TrpArgTrpTyrCysArg]
inhibition of bacterial cell growth, FIG. 12 [2]: inhibition of bacterial cell growth | potency among peptides of a screen for site-specific recombination inhibitors [3]: the most potent

O=C1NC(Cc2ccccc2)C(=O)N2Cc3ccccc3C[C@@H]2C(=O)NC(Cc2ccccc2)C(=O)NC(Cc2ccccc2)C(=O)N2Cc3ccccc3C[C@@H]2C(=O)NC1Cc1ccccc1 (stereo partly shown) [D] (cyclo([dTic][ξF][ξF][dTic][ξF][ξF]))
accumulation of HJ intermediates / binding to the HJ [1]: particularly active

WKHYNY [WKHYNY]
concentrations at which not cytotoxic [4]: below 250 mg/ml

KWWCRW [KWWCRW, LysTrpTrpCysArgTrp]
concentrations at which not cytotoxic [4]: below 250 mg/ml

O=C1NC(Cc2c[nH]c3ccccc23)C(=O)N2Cc3ccccc3CC2C(=O)NC(Cc2ccccc2)C(=O)NC(Cc2c[nH]c3ccccc23)C(=O)N2Cc3ccccc3CC2C(=O)NC1Cc1ccccc1 (stereo not shown) [B] (cyclo(FW[Tic]FW[Tic]); configuration not given here)
accumulation of HJ intermediates / binding to the HJ [1]: particularly active

O=C1CNC(=O)C(Cc2c[nH]c3ccccc23)NC(=O)C(Cc2ccccc2)NC(=O)CNC(=O)C(Cc2c[nH]c3ccccc23)NC(=O)C(Cc2ccccc2)N1 (stereo not shown) [H] (cyclo(GFWGFW); configuration not given here)
bacterial growth inhibition by macrocyclic compounds [5]: greatest level of activity

TrpLys(His or Ala)TyrAsnTyr [WK(HorA)YNY]
potency among Holliday junction-stabilizing peptide families [6]: the most potent
